# Assay results: publication PMC10776900, “Identification of structural motifs critical for human G6PC2 function informed by sequence analysis and an AlphaFold2-predicted model” (Bioscience Reports, 2024)
# How the values were obtained:
# human G6PC2 V219 variant [1] = biological target: T1, human G6PC2 V219 variant (Homo sapiens, UniProt Q9NQR9); assay: G6Pase activity with acute addition of cholesterol to purified enzyme; type: biochemical; conditions: purified without CHS, LMNG micelles; putative CRAC motif
# T1 construct: purified from HEK293S (BacMam) in LMNG micelles
# human G6PC2 V219 variant [2] = biological target: T1, human G6PC2 V219 variant; assay: G6Pase activity of enzyme purified with versus without CHS; type: biochemical; conditions: CHS 0.05% in solubilisation, 0.02% in later buffers, LMNG micelles; putative CRAC motif
SMILES,G6Pase activity with acute addition of cholesterol to purified enzyme (human G6PC2 V219 variant [1]),% reduction of Vmax (human G6PC2 V219 variant [2])
CC(C)CCC[C@@H](C)[C@H]1CC[C@H]2[C@@H]3CC=C4C[C@@H](O)CC[C@]4(C)[C@H]3CC[C@]12C [cholesterol],addition of cholesterol decreased the activity of the V219 but not the L219 variant,
CC(C)CCC[C@@H](C)[C@H]1CC[C@H]2[C@@H]3CC=C4C[C@@H](OC(=O)CCC(=O)O)CC[C@]4(C)[C@H]3CC[C@]12C [cholesterol hemi-succinate],,~ 90%
